These results are taken from US9839642B2, “Beta-tetrazolyl-propionic acids as metallo-beta-lactamase inhibitors” (priority 2014, dated 2017).

Like-named read-outs stand apart in the source and are kept apart here. Where only a bound is given, the exact number is not on record here.

The target in one test is VIM-1 (Pseudomonas aeruginosa, UniProt A0A0F7KYQ8). Put plainly: Enzyme activity: determination of IC50, fluorescence assay with CCF2-FA substrate. In kind it is biochemical. The conditions noted are these: enzyme 30 pM, CCF2-FA 1.25 μM, 2 hours at 25° C.; read-out: VIM1 IC50. The procedure, abridged: (§1)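 Read-out: fluorescence, ex 405 nm / em 460 nm, after 2 h at 25° C with 1.25 μM CCF2-FA. Buffer 100 mM KH2PO4 pH 7, 0.005% Tween-20, 10 μM ZnSO4; enzyme 1 pM NDM-1, 2 pM IMP-1, 30 pM VIM-1. IC50 by 4-parameter fit.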

Another test has as its target NDM-1 (Klebsiella pneumoniae, UniProt C7C422). The description is as above. It is filed as biochemical. Conditions: CCF2-FA 1.25 μM, 2 hours at 25° C. The procedure, abridged:
as §1

The target in the next test is IMP-1 (Serratia marcescens, UniProt P52699). Described as above. It is filed as biochemical. Conditions: enzyme 2 pM, CCF2-FA 1.25 μM, 2 hours at 25° C.; read-out: IMP1 IC50. Summed up: as §1
IMP-1, sequence (P52699 19-246, looked up, species assumed): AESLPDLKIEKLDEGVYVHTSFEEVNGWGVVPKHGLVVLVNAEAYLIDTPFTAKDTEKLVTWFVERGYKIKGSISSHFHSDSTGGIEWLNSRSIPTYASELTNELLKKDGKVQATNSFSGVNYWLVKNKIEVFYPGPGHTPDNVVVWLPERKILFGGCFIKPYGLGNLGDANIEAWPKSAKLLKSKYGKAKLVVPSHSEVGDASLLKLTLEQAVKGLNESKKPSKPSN
Test [1] relates to Klebsiella pneumoniae expressing VIM-1 (IHMA599644). Put plainly: Antibiotic potentiation activity: synergistic concentration (MITC95) with imipenem, growth by OD600. Conditions: 95% inhibition of bacterial growth, strain IHMA599644. In kind it is cell-based. Summed up: (§2)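 Strains grown overnight at 35° C, resuspended in saline, diluted 1:100 into 1.1×CAMHB; imipenem at 1 μg/ml or 4 μg/ml with test compound 200 μM to 0.195 μM. Incubated 22 hours to 24 hours at 35° C, OD600 read; MITC95 is lowest compound concentration inhibiting 95% of growth.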

The subject of test [2] is Serratia marcescens expressing IMP-1 (CL5741). The test is described as above. In kind it is cell-based. The conditions noted are these: 95% inhibition of bacterial growth, strain CL5741. The procedure, abridged: as §2
Test [3] concerns Escherichia coli expressing NDM-1 (CLB30005). The description is as above. In kind it is cell-based. Conditions: 95% inhibition of bacterial growth, strain CLB30005. The procedure, abridged:
as §2

[4] abbreviates: enzyme 1 pM, read-out: NDM1 IC50.

Usually IC50 stands for the midpoint of a concentration-inhibition curve.

NDM-1, sequence (C7C422 29-270, looked up, species assumed): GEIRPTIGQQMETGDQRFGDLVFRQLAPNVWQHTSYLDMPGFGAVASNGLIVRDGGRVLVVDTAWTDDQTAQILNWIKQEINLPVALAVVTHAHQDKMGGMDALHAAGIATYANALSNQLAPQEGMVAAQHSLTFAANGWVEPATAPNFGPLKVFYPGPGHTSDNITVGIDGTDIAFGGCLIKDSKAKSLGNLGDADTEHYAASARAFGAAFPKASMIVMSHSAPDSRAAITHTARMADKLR

For `CC(C)[C@H](C(=O)O)[C@H](Cc1ccc(C2=CCNCC2)cc1)c1nnn[nH]1` [Example 59, (2S,3S)-2-isopropyl-4-(4-(1,2,3,6-tetrahydropyridin-4-yl)phenyl)-3-(1H-tetrazol-5-yl)butanoic acid], the concentration for half-maximal inhibition (IC50) worked out at 10 nM at VIM-1; 9 nM against NDM-1 (NDM1 IC50, enzyme 1 pM); 55 nM on IMP-1. For the same compound, the “VIM1 KP599644 MITC95” value in test [1] was 150 µM. Further, in test [2], the “IMP1 SM5741 MITC95” value was found to be 56.2 µM. For the same compound, the “NDM1 EC30005 MITC95” value in test [3] is 12.5 µM.
For `CCC[C@H](C(=O)O)[C@H](Cc1ccc(Cl)nc1)c1nnn[nH]1` [Example 82, (S)-2-((S)-2-(6-chloropyridin-3-yl)-1-(1H-tetrazol-5-yl)ethyl)pentanoic acid], the results for the IC50 at VIM-1, on NDM-1 (setting [4]) and at IMP-1 were 5.7 nM, 240 nM and 4600 nM, respectively. Moreover, in test [1], the “VIM1 KP599644 MITC95” value is 25 µM. Moreover, the “IMP1 SM5741 MITC95” value in test [2] came to 200 µM. Further, in test [3], the “NDM1 EC30005 MITC95” value turned out to be 6.2 µM.
With `CCC[C@H](C(=O)O)[C@H](Cc1ccc(Cl)cn1)c1nnn[nH]1` [Example 83, (S)-2-((S)-2-(5-chloropyridin-2-yl)-1-(1H-tetrazol-5-yl)ethyl)pentanoic acid], the 50% inhibitory concentration (IC50) on VIM-1 is 71 nM; at NDM-1 (setting [4]) it was 880 nM; at IMP-1, over 20000 nM. For the same compound, the “VIM1 KP599644 MITC95” value in test [1] came to 100 µM. The “IMP1 SM5741 MITC95” value in test [2] is over 200 µM. In addition, in test [3], the “NDM1 EC30005 MITC95” value stood at 8.3 µM.
`CCC[C@H](C(=O)O)[C@H](Cc1ccc(-c2ccc3c(c2)CNC3)nc1)c1nnn[nH]1` [Example 95, 5-(5-((2S,3S)-3-carboxy-2-(1H-tetrazol-5-yl)hexyl)pyridin-2-yl)isoindolin-2-ium]: the IC50 came to 6.5 nM on VIM-1, 160 nM at NDM-1 (setting [4]) and 2500 nM on IMP-1. For the same compound, the “VIM1 KP599644 MITC95” value in test [1] was found to be 12.5 µM. In addition, the “IMP1 SM5741 MITC95” value in test [2] was 50 µM. In test [3], the “NDM1 EC30005 MITC95” value is 3.1 µM.
Take `CCC[C@H](C(=O)O)[C@H](Cc1ccc(Br)nc1)c1nnn[nH]1` [Example 143]: the half-inhibitory concentration (IC50) came to 2.6 nM at VIM-1, 53 nM on NDM-1 (setting [4]) and 1700 nM on IMP-1. The “VIM1 KP599644 MITC95” value in test [1] was found to be 100 µM. Also, the “IMP1 SM5741 MITC95” value in test [2] was over 200 µM. In test [3], the “NDM1 EC30005 MITC95” value came out at 12.5 µM.
For `CCC[C@H](C(=O)O)[C@H](Cc1ccc(N2CCNCC2)nc1)c1nnn[nH]1` [Example 145, (S)-2-((S)-2-(6-(piperazin-1-yl)pyridin-3-yl)-1-(1H-tetrazol-5-yl)ethyl)pentanoic acid], the IC50 on VIM-1 came out at 18 nM; against NDM-1 (NDM1 IC50, enzyme 1 pM), 700 nM; on IMP-1, 12000 nM. The “VIM1 KP599644 MITC95” value in test [1] came out at 75 µM. In addition, the “IMP1 SM5741 MITC95” value in test [2] was 200 µM. The “NDM1 EC30005 MITC95” value in test [3] came to 6.2 µM.
Consider `CCC[C@H](C(=O)O)[C@H](Cc1ccc(-c2c(C)nn(C)c2C)nc1)c1nnn[nH]1` [Example 158, (S)-2-((S)-1-(1H-tetrazol-5-yl)-2-(6-(1,3,5-trimethyl-1H-pyrazol-4-yl)pyridin-3-yl)ethyl)pentanoic acid], for which the IC50 on VIM-1 stood at 25 nM; at NDM-1 (setting [4]) it was 14 nM; at IMP-1, 61 nM. For the same compound, the “VIM1 KP599644 MITC95” value in test [1] was 100 µM. Further, in test [2], the “IMP1 SM5741 MITC95” value came to 12.5 µM. Also, the “NDM1 EC30005 MITC95” value in test [3] was 62 µM.
As to `CCCC[C@@H](C(=O)O)[C@@H](Cc1ccc(-c2ccc(S(N)(=O)=O)cc2)cc1)c1nn[nH]n1` [Example 184, (2R)-2-[(1R)-2-(4′-sulfamoylbiphenyl-4-yl)-1-(2H-tetrazol-5-yl)ethyl]hexanoic acid], the IC50 at VIM-1 worked out at 300 nM; at NDM-1 (setting [4]) it was 900 nM; on IMP-1 it was 200 nM. Also, the “VIM1 KP599644 MITC95” value in test [1] was over 200 µM. Further, the “IMP1 SM5741 MITC95” value in test [2] came out at 100 µM. In test [3], the “NDM1 EC30005 MITC95” value is over 200 µM.
`CCCC[C@@H](C(=O)O)[C@@H](Cc1ccc(-c2c(C)nn(C)c2C)cc1)c1nn[nH]n1` [Example 185, (2R)-2-{(1R)-1-(2H-tetrazol-5-yl)-2-[4-(1,3,5-trimethyl-1H-pyrazol-4-yl)phenyl]ethyl}hexanoic acid]: the IC50 at VIM-1 came out at 740 nM; on NDM-1 (setting [4]), 880 nM; at IMP-1, 11 nM. For the same compound, the “VIM1 KP599644 MITC95” value in test [1] is over 200 µM. In addition, the “IMP1 SM5741 MITC95” value in test [2] came out at 100 µM. Besides, the “NDM1 EC30005 MITC95” value in test [3] is over 200 µM.
For `CCCC[C@@H](C(=O)O)[C@@H](Cc1ccc(-c2cn[nH]c2)cc1)c1nn[nH]n1` [Example 186, (2R)-2-[(1R)-2-[4-(1H-pyrazol-4-yl)phenyl]-1-(2H-tetrazol-5-yl)ethyl]hexanoic acid], the IC50 was 60 nM at VIM-1, 750 nM on NDM-1 (setting [4]) and 140 nM at IMP-1. Also, in test [1], the “VIM1 KP599644 MITC95” value is over 200 µM. For the same compound, in test [2], the “IMP1 SM5741 MITC95” value amounted to 12.5 µM. Also, in test [3], the “NDM1 EC30005 MITC95” value worked out at 200 µM.
Turning to `CCCC[C@@H](C(=O)O)[C@@H](Cc1ccc(-c2cnn(-c3ccccc3)c2)cc1)c1nn[nH]n1` [Example 187, (2R)-2-[(1R)-2-[4-(1-phenyl-1H-pyrazol-4-yl)phenyl]-1-(2H-tetrazol-5-yl)ethyl]hexanoic acid], the half-inhibitory concentration (IC50) amounted to 140 nM on VIM-1, 980 nM at NDM-1 (setting [4]) and 180 nM at IMP-1. Also, the “VIM1 KP599644 MITC95” value in test [1] was over 200 µM. Also, in test [2], the “IMP1 SM5741 MITC95” value was determined as 103 µM. Further, the “NDM1 EC30005 MITC95” value in test [3] was over 200 µM.
For `CCCC[C@@H](C(=O)O)[C@@H](Cc1ccc(-c2ccccc2)cc1)c1nn[nH]n1` [Example 188, (2R)-2-[(1R)-2-biphenyl-4-yl-1-(2H-tetrazol-5-yl)ethyl]hexanoic acid], the figures for the half-inhibitory concentration (IC50) at VIM-1, at NDM-1 (setting [4]) and on IMP-1 were 180 nM, 640 nM and 140 nM, respectively. In test [1], the “VIM1 KP599644 MITC95” value was over 200 µM. Also, in test [2], the “IMP1 SM5741 MITC95” value amounted to 53 µM. For the same compound, in test [3], the “NDM1 EC30005 MITC95” value was over 200 µM.
For `CCC[C@H](C(=O)O)[C@H](Cc1ccc(-c2ccc(N(C)C)nc2)cc1)c1nn[nH]n1` [Example 189, (2S)-2-[(1S)-2-{4-[6-(dimethylamino)pyridin-3-yl]phenyl}-1-(2H-tetrazol-5-yl)ethyl]pentanoic acid], the IC50 came out at 4.3 nM on VIM-1, 13 nM at NDM-1 (setting [4]) and 29 nM on IMP-1. For the same compound, the “VIM1 KP599644 MITC95” value in test [1] stood at 100 µM. Also, the “IMP1 SM5741 MITC95” value in test [2] amounted to 7.8 µM. Besides, the “NDM1 EC30005 MITC95” value in test [3] is 2.3 µM.
On to `CCC[C@H](C(=O)O)[C@H](Cc1ccc(-c2cncc(N3CCN(C)CC3)c2)cc1)c1nn[nH]n1` [Example 190, (2S)-2-[(1S)-2-{4-[5-(4-methylpiperazin-1-yl)pyridin-3-yl]phenyl}-1-(2H-tetrazol-5-yl)ethyl]pentanoic acid], for which the concentration for half-maximal inhibition (IC50) on VIM-1 is 5.4 nM; at NDM-1 (setting [4]) it was 110 nM; on IMP-1, 610 nM. Moreover, the “VIM1 KP599644 MITC95” value in test [1] was found to be 75 µM. In test [2], the “IMP1 SM5741 MITC95” value is 38 µM. Besides, the “NDM1 EC30005 MITC95” value in test [3] came out at 9.4 µM.
For `CCC[C@H](C(=O)O)[C@H](Cc1ccc(-c2cncc(CN3CCCCC3)c2)cc1)c1nn[nH]n1` [Example 191, (2S)-2-[(1S)-2-{4-[5-(piperidin-1-ylmethyl)pyridin-3-yl]phenyl}-1-(2H-tetrazol-5-yl)ethyl]pentanoic acid], the 50% inhibitory concentration (IC50) stood at 8.3 nM on VIM-1, 260 nM at NDM-1 (setting [4]) and 1100 nM on IMP-1. Also, in test [1], the “VIM1 KP599644 MITC95” value worked out at 62 µM. Moreover, in test [2], the “IMP1 SM5741 MITC95” value amounted to 62 µM. Moreover, the “NDM1 EC30005 MITC95” value in test [3] turned out to be 25 µM.
With `CCC[C@H](C(=O)O)[C@H](Cc1ccc(-c2ccc(C(C)N3CCOCC3)cc2)cc1)c1nn[nH]n1` (stereo partly drawn) [Example 192, (2S)-2-[(1S)-2-[4′-(1-morpholin-4-ylethyl)biphenyl-4-yl]-1-(2H-tetrazol-5-yl)ethyl]pentanoic acid], the half-maximal inhibitory concentration (IC50) was 29 nM at VIM-1, 29 nM on NDM-1 (setting [4]) and 45 nM on IMP-1. For the same compound, the “VIM1 KP599644 MITC95” value in test [1] came to 200 µM. The “IMP1 SM5741 MITC95” value in test [2] worked out at 9.4 µM. Also, the “NDM1 EC30005 MITC95” value in test [3] stood at 7.8 µM.
With `CCC[C@H](C(=O)O)[C@H](Cc1ccc(-c2ccc3c(c2)CCC(N)C3)cc1)c1nn[nH]n1` (stereo partly drawn) [Example 193, (2S)-2-[(1S)-2-[4-(6-amino-5,6,7,8-tetrahydronaphthalen-2-yl)phenyl]-1-(2H-tetrazol-5-yl)ethyl]pentanoic acid], the half-inhibitory concentration (IC50) on VIM-1 was found to be 18 nM; at NDM-1 (setting [4]), 58 nM; at IMP-1, 45 nM. Moreover, in test [1], the “VIM1 KP599644 MITC95” value worked out at 50 µM. Further, the “IMP1 SM5741 MITC95” value in test [2] turned out to be 6.2 µM. Besides, the “NDM1 EC30005 MITC95” value in test [3] is 4.7 µM.
